Data as given in the supplement of paper PMC10307832.

How the values were obtained:
Assay in all cases: relative viability (nuclei count vs DMSO), 5 days (fraction); higher = more cells survive
[1] = compound: CC(=O)c1c(C)c2cnc(Nc3ccc(N4CCNCC4)cn3)nc2n(C2CCCC2)c1=O [Palbociclib] + C[C@@H](Oc1cc(-c2cnn(C3CCNCC3)c2)cnc1N)c1c(Cl)ccc(F)c1Cl [Crizotinib] (partner 1 µM)
How it was run: (§1)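 For relative viability, nuclei counts in treated wells were divided by those in vehicle wells. Lung cancer cell lines had been pin-tool dosed in 1536-well plates the day after seeding and cultured for 5 days, then fixed and stained in one step (final 0.05% Triton X-100, 1% formaldehyde, 1 ug/ml Hoechst) and imaged at 4×. Doses were one drug alone or a fixed anchor-drug dose plus five library-drug doses (not always all listed) in √10 steps, and values are duplicate-plate medians.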

[2] = compound: CC(=O)c1c(C)c2cnc(Nc3ccc(N4CCNCC4)cn3)nc2n(C2CCCC2)c1=O [Palbociclib] + CC1(C)CCC(c2ccc(Cl)cc2)=C(CN2CCN(c3ccc(C(=O)NS(=O)(=O)c4ccc(N[C@H](CCN5CCOCC5)CSc5ccccc5)c(S(=O)(=O)C(F)(F)F)c4)cc3)CC2)C1 [Navitoclax] (partner 0.5 µM)
How it was run: as §1

[3] = compound: CC(=O)c1c(C)c2cnc(Nc3ccc(N4CCNCC4)cn3)nc2n(C2CCCC2)c1=O [Palbociclib] + CC(C)C[C@H](NC(=O)[C@H](Cc1ccccc1)NC(=O)c1cnccn1)B(O)O [Bortezomib] (partner 0.002 µM)
How it was run: as §1

[4] = compound: CC(=O)c1c(C)c2cnc(Nc3ccc(N4CCNCC4)cn3)nc2n(C2CCCC2)c1=O [Palbociclib] + Nc1nc2[nH]cc(CCc3ccc(C(=O)N[C@@H](CCC(=O)O)C(=O)O)cc3)c2c(=O)[nH]1 [Pemetrexed] (partner 0.2 µM)
How it was run: as §1

| Cell Line | relative viability ([1]; first compound 0.01 µM) | relative viability ([1]; first compound 0.03162 µM) | relative viability ([1]; first compound 0.1 µM) | relative viability ([1]; first compound 0.3162 µM) | relative viability ([1]; first compound 1 µM) | relative viability ([2]; first compound 0.01 µM) | relative viability ([2]; first compound 0.03162 µM) | relative viability ([2]; first compound 0.1 µM) | relative viability ([2]; first compound 0.3162 µM) | relative viability ([2]; first compound 1 µM) | relative viability ([3]; first compound 0.01 µM) | relative viability ([3]; first compound 0.03162 µM) | relative viability ([3]; first compound 0.1 µM) | relative viability ([3]; first compound 0.3162 µM) | relative viability ([3]; first compound 1 µM) | relative viability ([4]; first compound 0.01 µM) | relative viability ([4]; first compound 0.03162 µM) | relative viability ([4]; first compound 0.1 µM) | relative viability ([4]; first compound 0.3162 µM) | relative viability ([4]; first compound 1 µM) |
| --- | --- | --- | --- | --- | --- | --- | --- | --- | --- | --- | --- | --- | --- | --- | --- | --- | --- | --- | --- | --- |
| NCI-H1755 | 0.927 | 0.889 | 0.707 | 0.706 | 0.539 | 1.03 | 0.974 | 0.876 | 0.818 | 0.715 | 0.977 | 0.761 | 0.803 | 0.733 | 0.483 | 0.429 | 0.394 | 0.385 | 0.467 | 0.397 |
| NCI-H1792 | 0.972 | 0.897 | 0.906 | 0.868 | 0.634 | 0.583 | 0.537 | 0.592 | 0.461 | 0.321 | 0.934 | 0.875 | 0.917 | 0.852 | 0.711 | 0.984 | 0.557 | 0.438 | 0.427 | 0.264 |
| NCI-H1915 | 0.89 | 0.863 | 0.879 | 0.856 | 0.796 | 0.764 | 0.733 | 0.771 | 0.782 | 0.763 | 1.02 | 0.684 | 0.921 | 0.947 | 0.778 | 0.494 | – | 0.446 | 0.413 | 0.331 |
| NCI-H1975 | 0.979 | 0.861 | 0.869 | 0.763 | 0.758 | 1.2 | 1.02 | 1.08 | 0.918 | 0.877 | 0.356 | 0.356 | 0.349 | 0.406 | 0.366 | 0.293 | 0.284 | 0.276 | 0.294 | 0.256 |
| NCI-H1993 | 0.806 | 0.757 | 0.718 | 0.617 | 0.625 | 0.84 | 0.875 | 0.752 | 0.771 | 0.706 | 1.23 | 0.905 | 0.969 | 0.763 | 0.814 | 0.681 | 0.649 | 0.482 | 0.512 | 0.54 |
| NCI-H2009 | 1.02 | 0.913 | 0.838 | 0.695 | 0.331 | 1.15 | 1.17 | 0.908 | 0.896 | 0.404 | 0.987 | 0.867 | 0.68 | 0.679 | 0.219 | 1.04 | 0.925 | 0.913 | 0.72 | 0.408 |
| NCI-H2023 | 0.568 | 0.58 | 0.49 | 0.367 | 0.272 | 1 | 0.897 | 0.897 | 0.77 | 0.48 | 0.96 | 0.279 | 0.705 | 0.654 | 0.391 | 0.203 | 0.188 | 0.169 | 0.174 | 0.142 |
| NCI-H2085 | 0.895 | 0.823 | 0.513 | 0.695 | 0.576 | 1.1 | 1.04 | 0.897 | 0.93 | 0.776 | 0.991 | 0.99 | 0.969 | 0.871 | 0.543 | 0.823 | 0.798 | 0.752 | 0.6 | 0.485 |
| NCI-H2087 | 0.802 | 0.901 | 0.618 | 0.643 | 0.375 | 1.04 | 0.843 | 0.802 | 0.685 | 0.495 | 0.803 | 0.81 | 0.702 | 0.485 | 0.372 | 0.683 | 0.664 | 0.621 | 0.537 | 0.393 |
| NCI-H2126 | 1.04 | 1.04 | 0.928 | 0.789 | 0.598 | 0.861 | 0.848 | 0.743 | 0.745 | 0.561 | 1.1 | 0.91 | 0.925 | 0.801 | 0.599 | 0.725 | 0.581 | 0.509 | 0.51 | 0.345 |
| NCI-H2228 | 0.447 | 0.45 | 0.406 | 0.31 | 0.369 | 0.99 | 1.01 | 0.729 | 0.856 | 0.827 | 1.08 | 0.871 | 0.88 | 0.875 | 0.89 | 0.312 | 0.352 | 0.337 | 0.341 | 0.346 |
| NCI-H2347 | 0.632 | 0.602 | 0.498 | 0.588 | 0.558 | 0.835 | 0.751 | 0.646 | 0.6 | 0.533 | 1.01 | – | 0.929 | – | 0.684 | 0.39 | 0.407 | 0.368 | 0.413 | 0.386 |
| NCI-H2405 | 0.829 | 0.649 | 0.698 | 0.703 | 0.586 | 0.866 | – | 0.574 | 0.729 | 0.722 | 0.973 | 0.769 | 0.847 | 1.01 | 0.597 | 1.06 | 1.14 | 0.941 | 0.799 | 0.523 |
| NCI-H3122 | 0.246 | 0.244 | 0.252 | 0.188 | 0.175 | 0.941 | 0.982 | 0.921 | 0.757 | 0.618 | 1.04 | 1.02 | 0.919 | 0.745 | 0.513 | 0.205 | 0.184 | 0.192 | 0.186 | 0.188 |
| PC-3 [JPC-3] | 0.988 | 1.04 | 0.86 | 0.797 | 0.653 | 0.769 | 0.778 | 0.66 | 0.721 | 0.635 | 0.776 | 0.701 | 0.706 | 0.665 | 0.545 | 1.14 | 1.06 | 0.952 | 0.878 | 0.428 |
| PC-14 | 1.01 | 0.84 | 0.799 | 0.739 | 0.594 | 1.14 | 0.932 | 0.908 | 0.877 | 0.605 | 1.02 | 0.863 | 0.751 | 0.655 | 0.57 | 0.143 | 0.142 | 0.137 | 0.148 | 0.158 |
